Tested on: C. albicans SC5314
Assay: Surface adhesion of C. albicans with simultaneous LreLTA and Hsp70 inhibitor VER-155008, crystal violet staining
Assay type: cell-based, Candida albicans
Details: SC5314 1×10^4 CFU/mL; LreLTA 30 μg/mL plus VER-155008 1, 10, 50 and 100 μM simultaneously; 24 hours; FIG. 4
Procedure: According to previous research, Hsp70 is known to play a role in controlling overall virulence factors and drug resistance in C. albicans, and thus, the inventors of the present disclosure conducted experiments by utilizing VER-155008, which is an Hsp70 inhibitor.
In order to determine the effect of VER-155008 on reducing C. albicans surface adhesion by LreLTA, C. albicans SC5314 strain was cultured in YPD medium and prepared at 1×10^4 CFU/mL, and LreLTA at a single concentration of 30 μg/mL and VER-155008 at concentrations of 1, 10, 50 and 100 μM were simultaneously treated. After culturing for 24 hours, the degree of adhesion maintenance to the surface was compared by 0.1% crystal violet staining.

N#Cc1ccc(COC[C@H]2O[C@@H](n3c(NCc4ccc(Cl)c(Cl)c4)nc4c(N)ncnc43)[C@H](O)[C@@H]2O)cc1 [VER-155008]
effect on the surface adhesion reducing efficacy of LreLTA: the efficacy of reducing the surface adhesion of LreLTA was decreased
